Test results from patent publication US20250017903A1, “USE OF EDARAVONE IN TREATMENT OF AUTISM SPECTRUM DISORDER” (SUZHOU AUZONE BIOLOGICAL TECHNOLOGY CO., LTD., priority 2021, published 2025).

Experiments:
[1] = test system: superoxide dismutase (SOD); assay: SOD activity detection in brain tissue of VPA model rats; assay type: in vivo, rat; settings: for SOD activity in the cerebellum (CE) / SOD activity in the prefrontal cortex (PFC): after 28 days of gavage, mean ± SE
Protocol: (§1) On the 26th day after the offspring were born, the modeled VPA group was randomly divided into 6 groups: placebo group (n=19, soluplus 428 mg/kg), positive drug (cromolyn sodium) group (n=14, cromolyn sodium 6.3 mg/kg), positive drug solvent (NS) group (n=12, equal dose of normal saline), EDA low-dose group (n=12, Edaravone 3 mg/kg), EDA medium-dose group (n=12, Edaravone 10 mg/kg) and EDA high-dose group (n=22, Edaravone 30 mg/kg); and another CON group (n=9). The positive drug group and the positive drug solvent group were given intraperitoneal injection, and the placebo group and each dose group of EDA were administrated by oral gavage, once a day for 28 consecutive days. Three-chamber social tests were conducted after 14 and 28 days of administration, and an open field test was conducted after 28 days of administration. After the animals were sacrificed, 6 animals were randomly selected from each group of the placebo group and each dose group of EDA, and the prefrontal cortex, hippocampus, cerebellum and blood were collected to detect oxidative stress-related indicators, so as to detect the antioxidant capacity of the body.
After 28 days of gavage treatment, the results of superoxide dismutase (SOD) activity detection in the prefrontal cortex (PFC) and cerebellum (CE) are shown in Table 3.

cysteine (Cys) = assay: Cys content detection in serum of VPA model rats; assay type: in vivo, rat; settings: for Cys content in serum: after 28 days of gavage, mean ± SE
Protocol: as §1

[2] = test system: VPA-induced autism model rats; assay: Three-chamber social test (social index) in VPA-induced rat autism model; assay type: in vivo; settings: for Social index (SI): VPA rats, mean ± SE
Protocol: (§2) Twenty-five SD pregnant rats were given a single intraperitoneal injection of 500 mg/kg sodium valproate (VPA) on 12.5 embryonic day and delivered on 21 embryonic day, and the male offspring were retained as the VPA group. Five pregnant rats in the control group were given a single intraperitoneal injection of normal saline of the same amount on 12.5 embryonic day and delivered on 21 embryonic day; and the male offspring were designated as the CON group.
(§3) When the offspring rats were 25th day old, an open field test was conducted to observe the grooming time, which reflects the repetitive and stereotyped behaviors of the animals); a three-chamber social test was conducted to observe the Social Index (SI), Social Index=(Time when the animal enters the unfamiliar rat area-time when the animal enters the empty cage area)÷(time when the animal enters the unfamiliar rat area+time when the animal enters the empty cage area), reflecting the social ability of experimental animals.
as §1

[3] = test system: reduced glutathione (GSH); assay: GSH detection in hippocampus and serum of VPA model rats; assay type: in vivo, rat; settings: for GSH activity in the hippocampus (HIP) / GSH activity in the serum: after 28 days of gavage, mean ± SE
Protocol: as §1
After 28 days of gavage treatment, the results of reduced glutathione (GSH) activity detection in hippocampus (HIP) and serum are shown in Table 5.

[4] = test system: glutathione S-transferase (GST); assay: GST activity detection in brain tissue of VPA model rats; assay type: in vivo, rat; settings: for GST activity in the hippocampus (HIP) / GST activity in the prefrontal cortex (PFC): after 28 days of gavage, mean ± SE
Protocol: as §1
After 28 days of gavage treatment, the results of glutathione S-transferase (GST) activity detection in the prefrontal cortex (PFC) and hippocampus (HIP) are shown in Table 4.

[5] = test system: VPA-induced autism model rats; assay: Open field test (grooming time) in VPA-induced rat autism model; assay type: in vivo; settings: for Grooming time: VPA rats, mean ± SE, in s (unit assumed); for Grooming time compared with before treatment: self-comparison, p<0.05 (FIG. 5)
Protocol: as §2, §3, §1

[6] = Day 28, EDA 3 mg/kg oral gavage once a day
[7] = Day 28, EDA 10 mg/kg oral gavage once a day
[8] = Day 28, EDA 30 mg/kg oral gavage once a day
[9] = after 14 days of treatment, each dose group of EDA and cromolyn sodium group, p<0.01 (FIG. 4)
[10] = before treatment (baseline), EDA 3 mg/kg group
[11] = before treatment (baseline), EDA 10 mg/kg group
[12] = before treatment (baseline), EDA 30 mg/kg group
[13] = Day 28, cromolyn sodium 6.3 mg/kg intraperitoneal once a day
[14] = before treatment (baseline), cromolyn sodium 6.3 mg/kg group

Structure (SMILES): CC1=NN(c2ccccc2)C(=O)C1 [EDA, 3-methyl-1-phenyl-2-pyrazolin-5-one]
- SOD activity in the prefrontal cortex compared with the placebo group ([1]; EDA medium-dose and high-dose groups, p<0.05, high dose p<0.001 (FIG. 7)): significantly increased
- SOD activity in the cerebellum (CE) ([1]; EDA 3 mg/kg): 67.04 ± 11.3 U/mgprot
- SOD activity in the prefrontal cortex (PFC) ([1]; EDA 3 mg/kg): 124.6 ± 5.73 U/mgprot
- SOD activity in the cerebellum (CE) ([1]; EDA 10 mg/kg): 83.07 ± 3.39 U/mgprot
- SOD activity in the prefrontal cortex (PFC) ([1]; EDA 10 mg/kg): 203.4 ± 14.37 U/mgprot
- SOD activity in the cerebellum (CE) ([1]; EDA 30 mg/kg): 138.7 ± 18.62 U/mgprot
- SOD activity in the prefrontal cortex (PFC) ([1]; EDA 30 mg/kg): 315 ± 42.53 U/mgprot
- Cys content in the blood compared with the placebo group (cysteine (Cys); EDA high-dose group, after 28 days of treatment, p<0.0001 (FIG. 13)): significantly higher
- Cys content in serum (cysteine (Cys); EDA 3 mg/kg): 0.35 ± 0.05 µmol/mL
- Cys content in serum (cysteine (Cys); EDA 10 mg/kg): 0.38 ± 0.13 µmol/mL
- Cys content in serum (cysteine (Cys); EDA 30 mg/kg): 1.15 ± 0.10 µmol/mL
- Social index (SI) ([2]; Day 14, EDA 3 mg/kg oral gavage once a day): 0.37 ± 0.14
- Social index (SI) ([2]; Day 14, EDA 10 mg/kg oral gavage once a day): 0.42 ± 0.15
- Social index (SI) ([2]; Day 14, EDA 30 mg/kg oral gavage once a day): 0.51 ± 0.11
- Social index (SI) [2, 6]: 0.48 ± 0.10
- Social index (SI) [2, 7]: 0.53 ± 0.09
- Social index (SI) [2, 8]: 0.55 ± 0.06
- Social index compared with the placebo group [2, 9]: significantly improved
- Social index compared with the placebo group ([2]; after 28 days of treatment, each dose group of EDA, p<0.05, high dose p<0.01 (FIG. 4)): significantly improved
- Social index (SI) [2, 10]: −0.12 ± 0.11
- Social index (SI) [2, 11]: −0.07 ± 0.15
- Social index (SI) [2, 12]: −0.04 ± 0.12
- Social index compared with before treatment ([2]; each dose group, after 14 and 28 days of continuous gavage, self-comparison (FIG. 3)): increased significantly
- GSH activity in the serum compared with the placebo group ([3]; EDA high-dose group, p<0.01 (FIG. 12)): even more significantly increased
- GSH activity in the hippocampus (HIP) compared with the placebo group ([3]; EDA high-dose group, p<0.05 (FIG. 11)): significantly increased
- GSH activity in the hippocampus (HIP) ([3]; EDA 3 mg/kg): 14.44 ± 7.97 U/mgprot
- GSH activity in the serum ([3]; EDA 3 mg/kg): 9.6 ± 2.14 U/mgprot
- GSH activity in the hippocampus (HIP) ([3]; EDA 10 mg/kg): 49.39 ± 10.34 U/mgprot
- GSH activity in the serum ([3]; EDA 10 mg/kg): 10.35 ± 1.92 U/mgprot
- GSH activity in the hippocampus (HIP) ([3]; EDA 30 mg/kg): 78.87 ± 17.13 U/mgprot
- GSH activity in the serum ([3]; EDA 30 mg/kg): 21.45 ± 0.86 U/mgprot
- GST activity in the hippocampus (HIP) ([4]; EDA 3 mg/kg): 144.5 ± 59.64 U/mgprot
- GST activity in the prefrontal cortex (PFC) ([4]; EDA 3 mg/kg): 39.54 ± 13.34 U/mgprot
- GST activity in the hippocampus (HIP) ([4]; EDA 10 mg/kg): 117.7 ± 28.12 U/mgprot
- GST activity in the prefrontal cortex (PFC) ([4]; EDA 10 mg/kg): 46.93 ± 13.31 U/mgprot
- GST activity in the hippocampus (HIP) ([4]; EDA 30 mg/kg): 295.4 ± 54.67 U/mgprot
- GST activity in the prefrontal cortex (PFC) ([4]; EDA 30 mg/kg): 103.8 ± 22.27 U/mgprot
- GST activity in the prefrontal cortex (PFC) compared with the placebo group ([4]; high-dose EDA group, p<0.01 (FIG. 9)): significantly increased
- GST activity in the hippocampus (HIP) compared with the placebo group ([4]; high-dose EDA group, p<0.01 (FIG. 10)): significantly increased
- Grooming time [5, 6]: 6.29 ± 1.72
- Grooming time [5, 7]: 5.04 ± 1.67
- Grooming time [5, 8]: 17.27 ± 5.78
- Grooming time compared with the placebo group ([5]; after 28 days of continuous gavage, each dose group of EDA, p<0.05, low and medium dose p<0.01 (FIG. 6)): significantly reduced
- Grooming time compared with before treatment ([5]; after 28 days of treatment): significantly reduced
- Grooming time compared with the positive drug (cromolyn sodium) group ([5]; after 28 days, EDA low-dose (3 mg/kg) and medium-dose (10 mg/kg) groups (FIG. 6)): significantly reduced
- Grooming time [5, 10]: 29.17 ± 5.82
- Grooming time [5, 11]: 20.76 ± 4.42
- Grooming time [5, 12]: 36.3 ± 5.08

Structure (SMILES): O=C(O)c1cc(=O)c2c(OCC(O)COc3cccc4oc(C(=O)O)cc(=O)c34)cccc2o1 [cromolyn sodium]
- Social index (SI) ([2]; Day 14, cromolyn sodium 6.3 mg/kg intraperitoneal once a day): 0.08 ± 0.37
- Social index (SI) [2, 13]: 0.42 ± 0.07
- Social index compared with the placebo group [2, 9]: significantly improved
- Social index, positive drug versus positive drug solvent group ([2]; after 28 days of treatment, cromolyn sodium 6.3 mg/kg intraperitoneal (FIG. 4)): no significant difference
- Social index (SI) [2, 14]: −0.13 ± 0.12
- Grooming time [5, 13]: 12.41 ± 2.01
- Grooming time, positive drug solvent group versus positive drug group ([5]; after 28 days of treatment, cromolyn sodium 6.3 mg/kg intraperitoneal (FIG. 6)): no significant difference
- Grooming time compared with before treatment ([5]; after 28 days of treatment): significantly reduced
- Grooming time [5, 14]: 27.63 ± 5.78
